Results taken from patent US20110268721A1, “Therapy Regimens, Dosing Regimens And Stable Medicaments For The Treatment Of Pompe Disease” (Amicus Therapeutics, Inc., priority 2008, published 2011).
Structures can show the parent of a compound that is named as a salt.

Assays:
[1] = target: T1, GAA in cell lines derived from late-onset Pompe patients with the IVS 1 (−13 T>G) splicing defect (Homo sapiens, UniProt P10253); assay: GAA levels in cell lines derived from late-onset Pompe patients; assay type: cell-based; conditions: IVS 1 (−13 T>G) splicing mutation
T1 construct: endogenous in cells

rhGAA (Myozyme™) = target: T2, rhGAA (Myozyme™) (Homo sapiens, UniProt P10253); assay: rhGAA enzyme inactivation in citrate anti-coagulated whole blood at 37° C. (4-MUG); assay type: biochemical
T2 construct: purchased Genzyme Corp; host or cells: Chinese hamster ovary cell line
Procedure: Aliquots were collected at 0, 2, 4, 8 and 24 hrs and centrifuged to obtain plasma. These plasma samples were then diluted in potassium acetate buffer (pH 4.0) and assayed for GAA activity using the 4-methylumbeliferyl-α-glucose (4-MUG) fluorogenic substrate. The measured GAA activity for individual samples at each time point was normalized to the 0 hr and expressed as % of initial activity. Data from 4 independent experiments were analyzed to obtain the mean (and standard deviation) and plotted versus time to assess the loss of enzyme activity over this time course.
Aliquots were collected at 0, 3 and 6 hrs and centrifuged to obtain plasma. These plasma samples were then diluted in potassium acetate buffer (pH 4.0) and assayed for GAA activity using the 4-methylumbeliferyl-α-glucose (4-MUG) fluorogenic substrate. The measured GAA activity for individual samples at each time point was normalized to the 0 hr and expressed as % of initial activity.
Based on human plasma PK data, these concentrations are readily obtainable in the clinic.

[2] = target: T3, recombinant human GAA (Myozyme®, Genzyme Corp.) (Homo sapiens, UniProt P10253); assay: SYPRO Orange protein folding monitored at 37° C. over 24 hours; assay type: binding; conditions: plasma pH (7.4), 100 μM 1-DNJ-HCl
T3 construct: purchased Genzyme Corp
Procedure: FIG. 2B depicts a parallel SYPRO Orange thermal stability experiment to determine if the loss of enzyme activity shown in FIG. 2A, particularly the loss of Myozyme activity at ER pH (7.4), correlates with protein unfolding and denaturation.
In order to determine if loss of initial enzyme activity is correlated to failure to maintain a proper conformation, a SYPRO Orange thermal stability experiment was performed on the samples above as generally described in Example 1. […] Based on this experiment, the % of GAA folded was estimated and plotted in FIG. 2B.

[3] = target: T3, recombinant human GAA (Myozyme®, Genzyme Corp.); assay: SYPRO Orange thermal stability assay (heat-induced denaturation); assay type: binding
Excerpt: The thermal stability assay utilizes heat to induce protein denaturation, which is monitored using a SYPRO Orange dye that fluoresces upon binding to hydrophobic amino acids (which are not exposed in a folded protein).
FIG. 5 depict the results of a thermal stability assay that utilizes heat to induce protein denaturation, which is monitored using a SYPRO Orange dye that fluoresces upon binding to hydrophobic amino acids (which are not exposed in a folded protein).
Denaturation is monitored using a SYPRO Orange dye that fluoresces upon binding to hydrophobic amino acids (which are not exposed in a folded protein).
The thermal stability was performed at pH 7.4 for two formulations, which corresponds to the pH of the ER.
A thermal stability experiment as generally described in Example 1 was performed on four compositions:
(1) Myozyme only composition;

GAA KO mice [4] = assay: Myozyme tissue uptake (GAA activity, 4-MUG) in GAA KO mice with or without oral 1-DNJ-HCl; assay type: in vivo
Excerpt: Enzymatic activity as determined using a 4-MUG fluorogenic substrate assay.

GAA KO mouse = assay: GAA activity in heart and diaphragm tissue of GAA KO mouse, rhGAA with or without 1-DNJ-HCl; assay type: in vivo
Procedure: Three groups of GAA KO Mice were administered one of the following formulations: […]
(1) Control (No Treatment);
Heart and Diaphragm tissue homogenates were harvested and rhGAA activity was measured using the fluorogenic substrate (4-MUG).

[5] = reported value; cited from earlier work
GAA KO mice [6] = assay: Tissue glycogen reduction in GAA KO mice; assay type: in vivo; conditions: Myozyme 40 mg/kg IV every other week for 8 weeks, 1-DNJ-HCl 30 mg/kg oral 30 minutes prior where co-administered
Procedure: Glycogen reduction with Myozyme™ alone was 93±1%, 41±4%, 69±3%, and 18±4%, in heart, diaphragm, soleus, and quadriceps, respectively, relative to untreated mice.
Twelve-week old male GAA KO mice were administered a single dose of Myozyme™ (40 mg/kg) via bolus tail vein injection every other week for 8 weeks. To prevent anaphylaxis, before the third and fourth Myozyme™ injection, diphenhydramine (10 mg/kg intraperitoneally) was administered 10 min before Myozyme™ injection. […] Mice were euthanized 14 days after the last Myozyme™ administration.
Glycogen levels in heart, diaphragm, soleus, and quadriceps were then measured. […] Briefly, homogenates were prepared by homogenizing ˜50 mg tissue for 3-5 seconds on ice with a microhomogenizer in 200 μL deionized water. Supernatants were heat denatured (99° C. for 10 min) to remove endogenous amyloglucosidase activity. Denatured lysates (4 μL) were then analyzed in duplicate by addition of 36 μL water with and without 10 μL of 800 U/mL of amyloglucosidase (Sigma Aldrich, St. Louis, Mo.) and incubated for 1 hour at 50° C. The reaction was stopped by inactivation at 100° C. for 10 min. Finally, 200 μL of glucose reagent (Sigma) was added absorbance read at 340 nm on Spectramax. A standard curve ranging from 5 μg/mL to 400 μg/mL Type III rabbit liver glycogen (Sigma) was run each day for conversion of absorbance to absolute glycogen units. Simultaneously, the amount of protein was determined in tissue homogenates using the Micro BCA Protein Assay (Pierce, Rockford, Ill.) following the manufacturer's instructions. The glycogen content of each sample was normalized to protein, and data were finally expressed as micrograms of glycogen per milligram of protein (μg/mg protein).

[7] = stored at 2 to 8° C.; patient instructions for Myozyme; cited from earlier work

Row | Compound | GAA levels in patient-derived cell lines [1] | rhGAA activity in whole blood with 1-DNJ-HCl (rhGAA (Myozyme™); 50 μM 1-DNJ-HCl, 37° C., throughout 24 hrs) | stabilization of rhGAA in whole blood (rhGAA (Myozyme™); high 1-DNJ-HCl concentrations (50 and 100 μM), range tested 0-100 μM) | prevention of GAA denaturation and loss of enzyme activity [2] | thermal stability of rhGAA (heat required to denature) ([3]; pH 7.4, 100 μM 1-DNJ-HCl, compared to formulation without the ASSC) | effect of co-administration on Myozyme tissue uptake (GAA KO mice [4]; 10, 100, 1000 mg/kg oral 1-DNJ-HCl with Myozyme 10 mg/kg IV, up to 7 days post injection) | increase of uptake of rhGAA in heart and diaphragm (GAA KO mouse; GAA KO mice, 100 mg/kg p.o., regimen including administration prior to rhGAA injection) | rhGAA uptake in the heart and diaphragm (GAA activity) (GAA KO mouse; GAA KO mouse, co-administered with rhGAA versus ERT monotherapy) | plasma half-life of Myozyme (reported) [5] | glycogen reduction in diaphragm relative to untreated mice (GAA KO mice [6]) [%] | glycogen reduction in heart relative to untreated mice (GAA KO mice [6]) [%] | glycogen reduction in quadriceps relative to untreated mice (GAA KO mice [6]) [%] | glycogen reduction in soleus relative to untreated mice (GAA KO mice [6]) [%] | time the product is stable on storage [7] | thermal stability of Myozyme alone ([3]; lysosomal pH (5.2) versus ER pH (7.4), no ASSC) | Myozyme tissue uptake (as a measure of GAA activity) (GAA KO mice [4]; Myozyme 10 mg/kg IV once per week, 7 days post injection, all groups)
1 | OC[C@H]1NC[C@H](O)[C@@H](O)[C@@H]1O [1-DNJ-HCl, 1-deoxynorjirimycin hydrochloride] | increased GAA levels alone and in combination with hrGAA | remained completely active | best for stabilizing rhGAA and preventing enzyme inactivation | can prevent GAA denaturation and loss of enzyme activity | required significantly more heat to denature | dose-dependent increase | approximately 2 fold | increased | – | – | – | – | – | – | – | –
2 | Myozyme: alglucosidase alfa, human acid α-glucosidase produced by recombinant DNA technology in a Chinese hamster ovary cell line (Genzyme) | – | – | – | – | – | – | – | – | more than 3 hrs | 41±4 | 93±1 | 18±4 | 69±3 | up to 24 hours | much more stable at lysosomal pH (5.2) than at ER pH (7.4) | declined
